# From ChEMBL document CHEMBL5344406, “1,2,3-Triazole-containing hybrids with potential antibacterial activity against ESKAPE pathogens” (2022)
# Experiments:
# Assay type in all cases: functional
# [1] = system: Pseudomonas aeruginosa; assay: Antibacterial activity against Pseudomonas aeruginosa assessed as bacterial growth inhibition incubated for 24 hrs by spectrophotometry
# [2] = system: Staphylococcus aureus; assay: Antibacterial activity against Staphylococcus aureus assessed as bacterial growth inhibition incubated for 24 hrs by spectrophotometry
# [3] = system: Escherichia coli; assay: Antibacterial activity against Escherichia coli assessed as bacterial growth inhibition incubated for 24 hrs by spectrophotometry
# [4] = system: Bacillus subtilis; assay: Antibacterial activity against Bacillus subtilis assessed as bacterial growth inhibition incubated for 24 hrs by spectrophotometry
# [5] = system: Salmonella enterica; assay: Antibacterial activity against Salmonella enterica assessed as bacterial growth inhibition incubated for 24 hrs by serial dilution method
# [6] = system: Escherichia coli; assay: Antibacterial activity against Escherichia coli assessed as bacterial growth inhibition by serial dilution method
# [7] = system: Staphylococcus aureus; assay: Antibacterial activity against Staphylococcus aureus MTCC 737 assessed as bacterial growth inhibition by serial dilution method
# [8] = system: Staphylococcus epidermidis; assay: Antibacterial activity against Staphylococcus epidermidis assessed as bacterial growth inhibition by serial dilution method
# [9] = system: Bacillus subtilis; assay: Antibacterial activity against Bacillus subtilis MTCC 441 assessed as bacterial growth inhibition incubated for 24 hrs by serial dilution method
# [10] = system: Escherichia coli; assay: Antibacterial activity against Escherichia coli MTCC 1687 assessed as bacterial growth inhibition by serial dilution method
# [11] = system: Bacillus subtilis; assay: Antibacterial activity against Bacillus subtilis assessed as bacterial growth inhibition by serial dilution method
# [12] = system: Staphylococcus aureus; assay: Antibacterial activity against Staphylococcus aureus MTCC 96 assessed as bacterial growth inhibition by broth microdilution method
# [13] = system: Escherichia coli; assay: Antibacterial activity against Escherichia coli MTCC 443 assessed as bacterial growth inhibition by broth microdilution method
# [14] = system: Bacillus subtilis; assay: Antibacterial activity against Bacillus subtilis assessed as bacterial growth inhibition incubated for 24 hrs by serial dilution method
# [15] = system: Pseudomonas aeruginosa; assay: Antibacterial activity against Pseudomonas aeruginosa assessed as bacterial growth inhibition
# [16] = system: Escherichia coli; assay: Antibacterial activity against Escherichia coli ATCC 25922 assessed as bacterial growth inhibition by broth microdilution method
# [17] = system: Bacillus subtilis; assay: Antibacterial activity against Bacillus subtilis ATCC 6633 assessed as bacterial growth inhibition incubated for 18 to 24 hrs by turbidimetry; conditions: time 18-24 hrs
# [18] = system: Pseudomonas aeruginosa; assay: Antibacterial activity against Pseudomonas aeruginosa MTCC 1688 assessed as bacterial growth inhibition by broth microdilution method
# [19] = system: Staphylococcus aureus; assay: Antibacterial activity against Staphylococcus aureus assessed as bacterial growth inhibition by agar well diffusion method
# [20] = system: Klebsiella pneumoniae; assay: Antibacterial activity against Klebsiella pneumoniae NCDC 138 assessed as bacterial growth inhibition incubated for 24 hrs by serial dilution method
# [21] = system: Bacillus subtilis; assay: Antibacterial activity against Bacillus subtilis assessed as bacterial growth inhibition by agar well diffusion method
# [22] = system: Staphylococcus aureus; assay: Antibacterial activity against Staphylococcus aureus ATCC 25923 assessed as bacterial growth inhibition by broth microdilution method
# [23] = system: Streptococcus pyogenes; assay: Antibacterial activity against Streptococcus pyogenes MTCC 442 assessed as bacterial growth inhibition by broth microdilution method
# [24] = system: Staphylococcus aureus; assay: Potency index, ratio of Norfloxacin MIC to test compound MIC for antibacterial activity against Staphylococcus aureus assessed as bacterial growth inhibition by broth dilution method
# [25] = system: Staphylococcus aureus; assay: Antibacterial activity against multidrug-resistant Staphylococcus aureus clinical isolate assessed as bacterial growth inhibition by broth dilution method
# [26] = system: Staphylococcus aureus; assay: Antibacterial activity against Staphylococcus aureus assessed as bacterial growth inhibition by broth dilution method
# [27] = system: Staphylococcus aureus; assay: Antibacterial activity against methicillin-resistant Staphylococcus aureus assessed as bacterial growth inhibition by agar dilution method
# [28] = system: Staphylococcus epidermidis; assay: Antibacterial activity against methicillin-sensitive Staphylococcus epidermidis assessed as bacterial growth inhibition
# [29] = system: Escherichia coli; assay: Antibacterial activity against Escherichia coli assessed as bacterial growth inhibition
# [30] = system: Klebsiella pneumoniae; assay: Antibacterial activity against Klebsiella pneumoniae assessed as bacterial growth inhibition
# [31] = system: Providencia rettgeri; assay: Antibacterial activity against Providencia rettgeri assessed as bacterial growth inhibition
# [32] = system: Klebsiella aerogenes; assay: Antibacterial activity against Enterobacter aerogenes assessed as bacterial growth inhibition
# [33] = system: Enterobacter cloacae; assay: Antibacterial activity against Enterobacter cloacae assessed as bacterial growth inhibition
# [34] = system: Escherichia coli; assay: Antibacterial activity against Escherichia coli producing extended spectrum beta-lactamases assessed as bacterial growth inhibition
# [35] = system: Enterococcus faecium; assay: Antibacterial activity against Enterococcus faecium assessed as bacterial growth inhibition
# [36] = system: Staphylococcus aureus; assay: Antibacterial activity against methicillin-sensitive Staphylococcus aureus assessed as bacterial growth inhibition
# [37] = system: Enterococcus faecalis; assay: Antibacterial activity against Enterococcus faecalis assessed as bacterial growth inhibition
# [38] = system: Klebsiella pneumoniae; assay: Antibacterial activity against Klebsiella pneumoniae producing extended spectrum beta-lactamases assessed as bacterial growth inhibition
# [39] = system: Proteus vulgaris; assay: Antibacterial activity against Proteus vulgaris assessed as bacterial growth inhibition
# [40] = system: Staphylococcus aureus; assay: Antibacterial activity against Staphylococcus aureus ATCC 25923 assessed as bacterial growth inhibition incubated for 18 to 24 hrs by turbidimetry; conditions: time 18-24 hrs
# [41] = system: Escherichia coli; assay: Antibacterial activity against Escherichia coli ATCC 25922 assessed as bacterial growth inhibition incubated for 18 to 24 hrs by turbidimetry; conditions: time 18-24 hrs
# [42] = system: Pseudomonas aeruginosa; assay: Antibacterial activity against Pseudomonas aeruginosa ATCC 27853 assessed as bacterial growth inhibition incubated for 18 to 24 hrs by turbidimetry; conditions: time 18-24 hrs
# [43] = system: Staphylococcus aureus; assay: Potency index, ratio of Pleuromutilin MIC to test compound MIC for antibacterial activity against Staphylococcus aureus clinical isolate AD3 incubated for 24 hrs by CLSI based broth dilution method
# [44] = system: Staphylococcus aureus; assay: Antibacterial activity against Staphylococcus aureus clinical isolate 144 assessed as bacterial growth inhibition incubated for 24 hrs by CLSI based broth dilution method
# [45] = system: Staphylococcus aureus; assay: Antibacterial activity against Staphylococcus aureus clinical isolate AD3 assessed as bacterial growth inhibition incubated for 24 hrs by CLSI based broth dilution method
# [46] = system: Staphylococcus aureus; assay: Antibacterial activity against methicillin-resistant Staphylococcus aureus ATCC 43300 infected in neutropenic mouse model of thigh infection assessed as reduction in bacterial load at 20 mg/kg, iv measured after 24 hrs by colony counting method
# [47] = system: Staphylococcus aureus; assay: Potency index, ratio of Pleuromutilin MIC to test compound MIC for antibacterial activity against Staphylococcus aureus clinical isolate 144 incubated for 24 hrs by CLSI based broth dilution method
# [48] = system: Staphylococcus aureus; assay: Potency index, ratio of Pleuromutilin MIC to test compound MIC for antibacterial activity against Staphylococcus aureus ATCC 43300 incubated for 24 hrs by CLSI based broth dilution method
# [49] = system: Staphylococcus aureus; assay: Antibacterial activity against Staphylococcus aureus ATCC 29213 assessed as bacterial growth inhibition incubated for 24 hrs by CLSI based broth dilution method
# [50] = system: Staphylococcus aureus; assay: Potency index, ratio of Pleuromutilin MIC to test compound MIC for antibacterial activity against Staphylococcus aureus ATCC 29213 incubated for 24 hrs by CLSI based broth dilution method
# [51] = system: Staphylococcus aureus; assay: Antibacterial activity against Staphylococcus aureus ATCC 43300 assessed as bacterial growth inhibition incubated for 24 hrs by CLSI based broth dilution method
# [52] = system: Escherichia coli; assay: Antibacterial activity against Escherichia coli assessed as bacterial growth inhibition by broth microdilution method
# [53] = system: Staphylococcus aureus; assay: Antibacterial activity against Staphylococcus aureus ATCC 43300 assessed as bacterial growth inhibition measured for 5 to 20 mins by broth dilution method; conditions: time 5-20 min
# [54] = system: Pseudomonas aeruginosa; assay: Antibacterial activity against Pseudomonas aeruginosa assessed as bacterial growth inhibition by broth microdilution method
# [55] = system: Staphylococcus aureus; assay: Antibacterial activity against Staphylococcus aureus assessed as bacterial growth inhibition by broth microdilution method
# [56] = system: Pseudomonas aeruginosa; assay: Antibacterial activity against Pseudomonas aeruginosa ATCC 10145 assessed as bacterial growth inhibition measured for 5 to 20 mins by broth dilution method; conditions: time 5-20 min
# [57] = system: Bacillus subtilis; assay: Antibacterial activity against Bacillus subtilis assessed as bacterial growth inhibition by broth microdilution method
smiles,measurement,setting,value
C[C@H]1COc2c(N3CCN(C)CC3)c(F)cc3c(=O)c(C(=O)O)cn1c23 [LEVOFLOXACIN ANHYDROUS],MIC,[1],33.6 mg/L
same,MIC,[2],33.6 mg/L
same,MIC,[3],33.6 mg/L
same,MIC,[4],33.6 mg/L
O=C(O)c1cn(C2CC2)c2cc(N3CCNCC3)c(F)cc2c1=O [CIPROFLOXACIN],MIC,[5],6.25 mg/L
same,MIC,[6],25 mg/L
same,MIC,[7],12.5 mg/L
same,MIC,[8],25 mg/L
same,MIC,[9],6.25 mg/L
same,MIC,[10],12.5 mg/L
same,MIC,[11],25 mg/L
same,MIC,[12],24.9 mg/L
same,MIC,[13],24.9 mg/L
same,MIC,[14],6.25 mg/L
same,MIC,[15],1.56 mg/L
same,MIC,[16],11 mg/L
same,MIC,[17],0.125 mg/L
same,MIC,[18],24.9 mg/L
same,MIC,[19],0.5 mg/L
same,MIC,[20],6.25 mg/L
same,MIC,[21],0.5 mg/L
same,MIC,[22],12 mg/L
same,MIC,[23],24.9 mg/L
CC(=O)OC[C@@H]1O[C@H](n2cc(Cn3c(=O)cc(C)n(CCCCCCCC[P+](c4ccccc4)(c4ccccc4)c4ccccc4)c3=O)nn2)[C@@H](OC(C)=O)[C@H]1OC(C)=O.[Br-],Ratio,[24],7.5
same,MIC,[25],1 mg/L
same,MIC,[26],1 mg/L
COc1cc(/C=C/c2ccc(OCc3cn(-c4ccc(C(=O)O)cc4)nn3)cc2)cc(OC)c1,MIC,[27],1.2 mg/L
CCO/N=C1\C(=O)N(Cc2cn(CC(=O)N3CCC[C@@H]4CN(c5c(F)cc6c(=O)c(C(=O)O)cn(C7CC7)c6c5OC)C[C@@H]43)nn2)c2ccccc21,MIC,[28],≤ 0.03 mg/L
same,MIC,[29],≤ 0.03 mg/L
same,MIC,[30],≤ 0.03 mg/L
same,MIC,[31],≤ 0.03 mg/L
same,MIC,[32],≤ 0.03 mg/L
same,MIC,[33],≤ 0.03 mg/L
same,MIC,[34],≤ 0.03 mg/L
same,MIC,[35],≤ 0.03 mg/L
same,MIC,[36],≤ 0.03 mg/L
same,MIC,[15],≤ 0.03 mg/L
same,MIC,[37],≤ 0.03 mg/L
same,MIC,[38],≤ 0.03 mg/L
same,MIC,[39],≤ 0.03 mg/L
Nc1c(C(=O)N2CCN(c3cc4c(cc3F)c(=O)c(C(=O)O)cn4C3CC3)CC2)nnn1-c1ccccc1,MIC,[40],15.6 mg/L
same,MIC,[41],15.6 mg/L
same,MIC,[17],15.6 mg/L
same,MIC,[42],15.6 mg/L
Cc1c(C(=O)/C=C/c2ccc(Cl)cc2)nnn1-c1ccc(Cl)c(Cl)c1,MIC,[1],1.3 mg/L
same,MIC,[2],1.3 mg/L
same,MIC,[3],1.3 mg/L
same,MIC,[4],1.3 mg/L
C=C[C@]1(C)C[C@@H](OC(=O)CN2CCN(C(=O)Cn3cc(CN4CCN(c5ccc([N+](=O)[O-])cc5)CC4)nn3)CC2)[C@@]2(C)[C@@H]3C(=O)CC[C@@]3(CC[C@@H]2C)[C@@H](C)[C@@H]1O,Ratio,[43],2
same,MIC,[44],1 mg/L
same,MIC,[45],1 mg/L
same,Activity,[46],-2.07 log10CFU/ml
same,Ratio,[47],2
same,Ratio,[48],2
same,MIC,[49],1 mg/L
same,Ratio,[50],2
same,MIC,[51],1 mg/L
CC1(C)S[C@@H]2[C@H](NC(=O)[C@H](N)c3ccccc3)C(=O)N2[C@H]1C(=O)O [AMPICILLIN],MIC,[52],4 mg/L
same,MIC,[53],2.5 mg/L
same,MIC,[54],1 mg/L
same,MIC,[55],4 mg/L
same,MIC,[56],5 mg/L
same,MIC,[57],4 mg/L
